# Measured values from US9096550B2, “Bryostatin analogues and methods of making and using thereof” (UNIVERSITY OF UTAH RESEARCH FOUNDATION, priority 2008, dated 2015).
# Biological target: mouse recombinant isozyme PKCα (Mus musculus, UniProt P20444)
# Experiment: [3H]PDBu binding assay (displacement of bound [20-3H]phorbol 12,13-dibutyrate)
# Conditions: displacement of [3H]PDBu from PKCα in the presence of calcium and phosphatidylserine; read-out: inhibitory dissociation constant (Ki)
# Method: The inhibitory dissociation constant (Ki) of each bryologue ligand was determined by the ability of the ligand to displace bound [20-^3H]phorbol 12,13-dibutyrate (PDBu) from mouse recombinant isozyme PKC α in the presence of calcium and phosphatidylserine, using a polyethylene glycol precipitation assay developed in our laboratory as described elsewhere. Briefly, the assay mixture (250 μL) contained 50 mM Tris-HCl (pH 7.4 at room temperature), 100 μg/mL phosphatidylserine, 0.1 mM Ca^2+, 4 mg/mL bovine immunoglobulin G and 0.003% Tx-100, 2 nM [^3H]PDBu and various concentrations of the competing ligand. […] The radioactivity was determined by scintillation counting, using Cytoscint (ICN, Costa Mesa, Calif.). Specific binding was calculated as the difference between total and nonspecific PDBu binding. The Inhibitory dissociation constants (Ki) were calculated using the method previously described by Blumberg and Lewin.
# The inhibitory dissociation constant (Ki) of MERLE 28 was determined by the ability of the ligand to displace bound [20-^3H]phorbol 12,13-dibutyrate (PDBu) from mouse recombinant isozyme PKCα in the presence of calcium and phosphatidylserine, using a polyethylene glycol precipitation assay previously described by Blumberg and Lewin. […] The radioactivity was determined by scintillation counting, using Cytoscint (ICN, Costa Mesa, Calif.). […]
smiles,measurement,value
C=C1C[C@H]2C[C@H]3C[C@@H](OC(C)=O)C[C@@H](C[C@@H](O)CC(=O)O[C@@H]([C@@H](C)O)C[C@@H]4C/C(=C\C(=O)OC)[C@H](OC(=O)CCCCCCC)[C@@](O)(O4)C(C)(C)/C=C/[C@@H](C1)O2)O3 [MERLE 27],Ki,3 ± 0.6 nM
